Measured values reported in US20070027064A1, “Pharmaceutical compositions for inhibiting metal ion dependent enzymatic activity and methods for the use thereof” (priority 2003, published 2007).

What was measured:
[1] = system: inducible nitric oxide synthetase (iNOS); set-up: inducible nitric oxide synthetase (iNOS): dose or concentration left out as unconfirmed; settings: murine macrophages, cited from earlier work
[2] = system: inducible nitric oxide synthetase; settings: rat mesangial cells; cited from earlier work
cancer cells = settings: examined over 0.1-10 μM, FIG. 1
Source text: It is recognized that the induction of MMPs is a key event in angiogenesis and metastatic tumor cell invasiveness.

tumor cells = settings: 0.0001-0.1 μM TPEN, filters coated with collagen IV
Procedure: Chemotaxis evaluation was performed in a similar way to basement membrane invasion, with the exception that the filters were coated with […] collagen IV instead of Matrigel.

[3] = cited from earlier work
MMP-9 = MMP-9 (Homo sapiens, UniProt P14780)
Chain of MMP-9 (P14780 94-707): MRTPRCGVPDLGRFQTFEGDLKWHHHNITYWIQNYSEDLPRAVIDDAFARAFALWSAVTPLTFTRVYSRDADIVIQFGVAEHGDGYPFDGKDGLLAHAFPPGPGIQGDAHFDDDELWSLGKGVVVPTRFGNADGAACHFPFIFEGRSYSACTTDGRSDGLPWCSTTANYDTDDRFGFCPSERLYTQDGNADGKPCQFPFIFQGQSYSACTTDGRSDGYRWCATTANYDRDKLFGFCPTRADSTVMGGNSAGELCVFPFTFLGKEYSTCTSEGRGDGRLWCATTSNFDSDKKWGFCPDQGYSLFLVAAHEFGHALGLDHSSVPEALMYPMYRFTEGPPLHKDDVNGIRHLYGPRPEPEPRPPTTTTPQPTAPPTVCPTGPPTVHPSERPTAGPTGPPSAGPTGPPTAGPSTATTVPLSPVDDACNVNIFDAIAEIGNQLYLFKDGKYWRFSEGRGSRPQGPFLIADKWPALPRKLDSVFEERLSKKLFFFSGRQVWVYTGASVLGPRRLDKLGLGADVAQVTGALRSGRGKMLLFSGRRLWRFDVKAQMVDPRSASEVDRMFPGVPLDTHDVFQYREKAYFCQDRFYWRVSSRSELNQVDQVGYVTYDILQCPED
Procedure: (§1) Sub-confluent cell cultures were incubated for 6-24 h in serum-free DMEM and the resulted supernatant were analyzed for collagenolytic activity. The collagenolytic activity was determined on a gelatin impregnated (1 mg/ml, Difco, Detroit, Mich.), SDS-PAGE 8% gel, with minor modifications. […] The gels were then incubated for 16 hours at 37° C. in 50 mM Tris, 0.2M NaCl, 5 mM CaCl2, 0.02% Brij 35 (w/v) at pH 7.6. At the end of the incubation period, the gels were stained with 0.5% Coomassie G 250 (Bio-Rad Richmond Calif.) in methanol/acetic acid/H2O (30:10:60). The intensity of the various bands was determined on a computerized densitometer (Molecular Dynamics type 300A).

MMP-2 = MMP-2 (Homo sapiens, UniProt P08253)
Chain of MMP-2 (P08253 110-660): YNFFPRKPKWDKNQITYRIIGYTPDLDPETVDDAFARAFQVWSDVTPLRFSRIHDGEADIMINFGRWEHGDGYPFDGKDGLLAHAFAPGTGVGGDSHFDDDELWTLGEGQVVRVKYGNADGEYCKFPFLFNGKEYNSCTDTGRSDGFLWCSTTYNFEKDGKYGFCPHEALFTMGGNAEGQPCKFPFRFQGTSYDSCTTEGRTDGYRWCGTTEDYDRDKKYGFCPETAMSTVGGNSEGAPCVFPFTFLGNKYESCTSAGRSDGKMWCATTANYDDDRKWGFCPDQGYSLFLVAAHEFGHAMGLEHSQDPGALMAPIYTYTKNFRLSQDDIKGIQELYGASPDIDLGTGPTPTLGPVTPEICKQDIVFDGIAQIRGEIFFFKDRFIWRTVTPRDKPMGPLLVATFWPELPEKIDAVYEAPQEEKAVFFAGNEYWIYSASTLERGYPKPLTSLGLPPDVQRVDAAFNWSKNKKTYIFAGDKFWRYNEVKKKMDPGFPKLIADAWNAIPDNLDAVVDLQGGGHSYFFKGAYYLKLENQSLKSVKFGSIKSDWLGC
Procedure: as §1

[4] = 6 hours of incubation, HT1080, TPEN 0.001-0.1 micromolar, FIG. 4A
[5] = 24 hours of incubation, HT1080, FIG. 4B

NC(=O)C1=C(O)C[C@@H]2C[C@@H]3Cc4cccc(O)c4C(=O)C3=C(O)[C@]2(O)C1=O [COL-3, 6-demethyl-6-deoxy-4-dedimethylaminotetracycline]
nitric oxide production ([1]; COL-3 between 2.5 and 10 µg/mL, concentration-dependent): inhibited
inducible nitric oxide synthetase (iNOS) ([1]; COL-3 between 2.5 and 10, concentration-dependent): inhibited
inducible nitric oxide synthetase protein expression [2]: decrease
nitric oxide production [2]: decrease

c1ccc(CN(CCN(Cc2ccccn2)Cc2ccccn2)Cc2ccccn2)nc1 [TPEN, NNN′N′-Tetrakis-(2-pyridyl-methyl)-ethylenediamine]
concentration above which TPEN has a toxic effect (cancer cells): above 0.1 μM
chemotactic activity of the cells (tumor cells): not affected
Ion affinity ([3]; rank order of metal ions): Zn^2+ > Fe^2+ > Mn^2+ >> Ca^2+ > Mg^2+
metal binding ([3]; under physiological blood concentration): binds zinc, iron, and copper but does not bind magnesium and calcium
MMP-9 activity, % from the control (MMP-9; [4]): 64%
inhibition of MMP-9 activity after 24 hours (MMP-9; [5]): disappeared
MMP-2 activity, % from the control (MMP-2; [4]): 32%
inhibition of MMP-2 activity after 24 hours (MMP-2; [5]): disappeared
